Source: US10633389B2, “CARM1 inhibitors and uses thereof” (Epizyme, Inc., priority 2013, dated 2020)

Experiments:
[1] = system: asymmetric di-methyl PABP1 in RKO cells; assay: RKO methylation assay, In Cell Western (ICW) for asymmetric di-methyl PABP1; format: cell-based; details: Homo sapiens, RKO, Cellular potencies, ICW PABP1me2a
Method in brief: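 RKO cells treated with compound for 48 h at 37 °C, then fixed, permeabilized and immunostained for asymmetric di-methyl PABP1, with DRAQ5 as DNA stain. Infrared 700/800 nm signal ratio normalized to DMSO and 20 μM reference-compound controls; IC50 from triplicate wells.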

human CARM1 (PRMT4) = human CARM1 (PRMT4) (Homo sapiens (Human), UniProt Q86X55); assay: CARM1 enzyme assay on peptide substrate (3H-SAM Flashplate); details: Biochemical potencies, read-out: Biochem IC50
Sequence of human CARM1 (PRMT4) (Q86X55 other isoform, or with tags, fused parts or gaps isoform Q86X55-1): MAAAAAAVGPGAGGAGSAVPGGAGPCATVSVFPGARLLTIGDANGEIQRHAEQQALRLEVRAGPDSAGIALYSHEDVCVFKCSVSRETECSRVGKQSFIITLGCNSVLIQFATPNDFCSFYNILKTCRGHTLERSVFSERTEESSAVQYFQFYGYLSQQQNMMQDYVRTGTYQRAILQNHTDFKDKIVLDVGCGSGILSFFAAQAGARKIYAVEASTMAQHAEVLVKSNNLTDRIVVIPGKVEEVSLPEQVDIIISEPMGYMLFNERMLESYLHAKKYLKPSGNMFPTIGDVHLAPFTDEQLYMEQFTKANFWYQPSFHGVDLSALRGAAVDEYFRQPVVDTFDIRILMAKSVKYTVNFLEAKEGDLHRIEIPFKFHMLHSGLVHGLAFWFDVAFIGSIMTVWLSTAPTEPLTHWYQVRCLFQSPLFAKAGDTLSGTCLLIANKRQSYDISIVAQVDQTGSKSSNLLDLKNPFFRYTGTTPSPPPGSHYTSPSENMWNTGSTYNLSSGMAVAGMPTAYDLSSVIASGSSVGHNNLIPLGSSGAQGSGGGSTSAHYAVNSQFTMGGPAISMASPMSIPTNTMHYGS

IC50 [1] [µM] | IC50 (human CARM1 (PRMT4)) [µM] | SMILES
10 to 20 | 0.1 to 1 | CNCC(O)COc1cccc(-c2nc(N3C[C@@H]4CCCN(C(C)=O)[C@@H]4C3)cc(N(C)C3CCOCC3)n2)c1 (some centres unmarked) [Example 539-1a]
10 to 20 | 0.1 to 1 | CNCC(O)COc1cccc(-c2nc(NCC3CCOCC3)cc(N(C)C3CCOCC3)n2)c1 (centres unmarked) [Example 540-1a]
10 to 20 | 0.1 to 1 | CNCC(O)COc1cccc(-c2nc(N(C)C3CCOCC3)c(C)c(C(C)(C)O)n2)c1 (centres unmarked) [Example 545-1a]
10 to 20 | 0.1 to 1 | CNCC(O)COc1cccc(-c2nc(C3CCN(C(C)=O)CC3)cc(N(C)C3CCOCC3)n2)c1 (centres unmarked) [Example 546-1a]
10 to 20 | 0.1 to 1 | CNCC(O)COc1cccc(-c2nc(N3CC[C@H](N(C)C(C)=O)C3)cc(N(C)C3CCOCC3)n2)c1 (some centres unmarked) [Example 547-1a]
10 to 20 | 0.1 to 1 | CNCC(O)COc1cccc(-c2nc(-c3ncc[nH]3)cc(N(C)C3CCOCC3)n2)c1 (centres unmarked) [Example 550-1a]
10 to 20 | 0.1 to 1 | CNCC(O)COc1cccc(-c2nc(Nc3ncc(OC)cn3)cc(N(C)C3CCOCC3)n2)c1 (centres unmarked) [Example 551-1a]
10 to 20 | 0.1 to 1 | CNCC(O)COc1cccc(-c2nc(N(C)C3CCOCC3)cc(N3CCN(C(C)=O)CC34CC4)n2)c1 (centres unmarked) [Example 552-1a]
10 to 20 | 0.1 to 1 | CNCC(O)COc1cccc(-c2nc(N3CC4(CCOCC4)C3)cc(N(C)C3CCOCC3)n2)c1 (centres unmarked) [Example 553-1a]
10 to 20 | 0.1 to 1 | CNCC(O)COc1cccc(-c2nc(C(=O)NC)cc(N(C)C3CCOCC3)n2)c1 (centres unmarked) [Example 554-1a]
10 to 20 | 0.1 to 1 | CNCC(O)COc1cccc(-c2nc(Nc3c(C)nn(C)c3C)cc(N(C)C3CCOCC3)n2)c1 (centres unmarked) [Example 555-1a]
10 to 20 | 0.1 to 1 | CNCC(O)COc1cccc(-c2nc(-c3c(C)ncnc3C)cc(N(C)C3CCOCC3)n2)c1 (centres unmarked) [Example 556-1a]
10 to 20 | 0.1 to 1 | CNCC(O)COc1cc(Cl)cc(-c2nc(C(=O)N(C)C)cc(N(C)C3CCOCC3)n2)c1 (centres unmarked) [Example 557-1a]
10 to 20 | 0.1 to 1 | CNCC(O)COc1cccc(-c2nc(N3CCC4(CCOC4)CC3)cc(N(C)C3CCOCC3)n2)c1 (centres unmarked) [Example 582-1a]
10 to 20 | 0.1 to 1 | CNCC(O)COc1cccc(-c2nc(-c3nccn3C)cc(N(C)C3CCOCC3)n2)c1 (centres unmarked) [Example 583-1a]
10 to 20 | 0.1 to 1 | CNCC(O)COc1cccc(-c2nc(NCC3(CCl)CCOCC3)cc(N(C)C3CCOCC3)n2)c1 (centres unmarked) [Example 584-1a]
10 to 20 | 0.1 to 1 | CNCC(O)COc1cccc(-c2nc(N3CCN(C(=O)OC)CC3)cc(N(C)C3CCOCC3)n2)c1 (centres unmarked) [Example 585-1a]
10 to 20 | 0.1 to 1 | CNCC(O)COc1cccc(-c2nc(N3CCN(CC(F)(F)F)CC3)cc(N(C)C3CCOCC3)n2)c1 (centres unmarked) [Example 586-1a]
10 to 20 | 0.1 to 1 | CNCC(O)COc1cccc(-c2nc(N(C)c3cnc(C(F)(F)F)nc3)cc(N(C)C3CCOCC3)n2)c1 (centres unmarked) [Example 587-1a]
10 to 20 | 0.1 to 1 | CNCC(O)COc1cccc(-c2nc(N(C)c3cnc(C)nc3)cc(N(C)C3CCOCC3)n2)c1 (centres unmarked) [Example 588-1a]
10 to 20 | 0.1 to 1 | CNCC(O)COc1cccc(-c2nc(-c3c[nH]cn3)cc(N(C)C3CCOCC3)n2)c1 (centres unmarked) [Example 589-1a]

IC50 [1] [µM] | IC50 (human CARM1 (PRMT4)) [µM] | SMILES
10 to 20 | 0.1 to 1 | CNCC(O)COc1cccc(-c2nc(N[C@H]3C[C@H](O)C3)cc(N(C)C3CCOCC3)n2)c1 (some centres unmarked) [Example 590-1a]
10 to 20 | 0.1 to 1 | CNCC(O)COc1cccc(-c2nc(N3CCC(O)(CCO)CC3)cc(N(C)C3CCOCC3)n2)c1 (centres unmarked) [Example 591-1a]
10 to 20 | 0.1 to 1 | CNCC(O)COc1cccc(-c2nc(C(=O)N(C)CC3CCOCC3)cc(N(C)C3CCOCC3)n2)c1 (centres unmarked) [Example 592-1a]
10 to 20 | 0.1 to 1 | CNCC(O)COc1cccc(-c2nc(C(=O)N(C)C)cc(N(C)C3CCOCC3)n2)c1 (centres unmarked) [Example 593-1a]
10 to 20 | 0.1 to 1 | CNCC(O)COc1cccc(-c2nc(N3CCN(CC(F)(F)F)[C@@H](C)C3)cc(N(C)C3CCOCC3)n2)c1 (some centres unmarked) [Example 594-1a]
10 to 20 | 0.1 to 1 | CNCC(O)COc1cccc(-c2nc(N3CCN(CC(F)F)[C@@H](C)C3)cc(N(C)C3CCOCC3)n2)c1 (some centres unmarked) [Example 595-1a]
10 to 20 | 0.1 to 1 | CNCC(O)COc1cccc(-c2nc(N3CCN(CCF)CC3)cc(N(C)C3CCOCC3)n2)c1 (centres unmarked) [Example 596-1a]
10 to 20 | 0.1 to 1 | CNCC(O)COc1cccc(-c2nc(Nc3c(C)noc3C)cc(N(C)C3CCOCC3)n2)c1 (centres unmarked) [Example 597-1a]
10 to 20 | 0.1 to 1 | CNCC(O)COc1cc(-c2nc(N(C)C3CCOCC3)c(C)c(-n3cccn3)n2)cc(-n2cccn2)c1 (centres unmarked) [Example 598-1a]
10 to 20 | 0.1 to 1 | CNCC(O)COc1cccc(-c2nc(N[C@H]3C[C@@H](O)C3)cc(N(C)C3CCOCC3)n2)c1 (some centres unmarked) [Example 599-1a]
10 to 20 | 0.1 to 1 | CNCC(O)COc1cccc(-c2nc(N[C@@H]3CC[C@@H](O)C3)cc(N(C)C3CCOCC3)n2)c1 (some centres unmarked) [Example 600-1a]
10 to 20 | 0.1 to 1 | CNCC(O)COc1cccc(-c2nc(N3CCOCC3)cc(N(C3CCOCC3)C3CC3)n2)c1 (centres unmarked) [Example 601-1a]
10 to 20 | 0.1 to 1 | CNCC(O)COc1cccc(-c2nc(C(=O)N(C)C3CCOCC3)cc(N(C)C3CCOCC3)n2)c1 (centres unmarked) [Example 602-1a]
10 to 20 | 1 to 3 | CNCC(O)COc1cccc(-c2nc(-c3nc[nH]c3C)cc(N(C)C3CCOCC3)n2)c1 (centres unmarked) [Example 603-1a]
10 to 20 | 1 to 3 | CNCC(O)COc1cccc(-c2nc(C(=O)N3CCOCC3)cc(N(C)C3CCOCC3)n2)c1 (centres unmarked) [Example 604-1a]
10 to 20 | 1 to 3 | CNCC(O)COc1cccc(-c2nc(NC3CCOCC3)cc(N(C3CCOCC3)C3CC3)n2)c1 (centres unmarked) [Example 605-1a]
10 to 20 | 1 to 3 | CCN(c1nc(-c2cccc(OCC(O)CNC)c2)nc(NC2CCOCC2)c1C)C1CCOCC1 (centres unmarked) [Example 606-1a]
10 to 20 | 3 to 10 | CNCC(O)COc1cccc(-c2nc(NC3CCOCC3)c(C)c(N(C3CCOCC3)C3CC3)n2)c1 (centres unmarked) [Example 607-1a]
10 to 20 | 3 to 10 | CNCC(O)COc1cc(Cl)cc(-c2nc(C(=O)O)cc(N(C)C3CCOCC3)n2)c1 (centres unmarked) [Example 608-1a]
10 to 20 | 0.1 to 1 | CNCC(O)COc1cc(Cl)cc(-c2nc(-c3c[nH]c4ccccc34)c(C)c(N(C)C3CCOCC3)n2)c1 (centres unmarked) [Example 625-1a]
≥ 20 | 1 to 3 | CNCC(O)COc1cccc(-c2nc(NCC(F)(F)F)cc(-c3cncnc3)n2)c1 (centres unmarked) [Example 626-1a]

IC50 [1] [µM] | IC50 (human CARM1 (PRMT4)) [µM] | SMILES
≥ 20 | 0.1 to 1 | CNCC(O)COc1cccc(-c2nc(NCC(F)(F)F)cc(-c3ccc(S(C)(=O)=O)cc3)n2)c1 (centres unmarked) [Example 627-1a]
≥ 20 | 0.1 to 1 | CNCC(O)COc1cccc(-c2nc(NCCOC)cc(-c3ccc4c(c3)OCCO4)n2)c1 (centres unmarked) [Example 628-1a]
≥ 20 | 0.1 to 1 | CNCC(O)COc1cccc(-c2nc(-c3cccc(C#N)c3)cc(N(CCOC)CCOC)n2)c1 (centres unmarked) [Example 629-1a]
≥ 20 | 0.1 to 1 | CNCC(O)COc1cccc(-c2nc(NCCOC)cc(-c3ccc(OC)c(OC)c3)n2)c1 (centres unmarked) [Example 630-1a]
≥ 20 | 1 to 3 | CNCC(O)COc1cccc(-c2nc(-c3cnn(CC(C)C)c3)cc(N(CCOC)CCOC)n2)c1 (centres unmarked) [Example 631-1a]
≥ 20 | 1 to 3 | CNCC(O)COc1cccc(-c2nc(NCCCN3CCCC3=O)cc(-c3cnn(CC(C)C)c3)n2)c1 (centres unmarked) [Example 635-1a]
≥ 20 | 0.1 to 1 | CNCC(O)COc1cccc(-c2nc(NCCOC)cc(-c3ccc(C(F)(F)F)nc3)n2)c1 (centres unmarked) [Example 636-1a]
≥ 20 | 0.1 to 1 | CNCC(O)COc1cccc(-c2nc(NCCOC)cc(-c3ccc(S(C)(=O)=O)cc3)n2)c1 (centres unmarked) [Example 637-1a]
≥ 20 | 0.1 to 1 | CNCC(O)COc1cccc(-c2nc(NCCOC)cc(-c3ccnc(OC)c3)n2)c1 (centres unmarked) [Example 638-1a]
≥ 20 | 0.1 to 1 | CNCC(O)COc1cccc(-c2nc(-c3cccc4ncccc34)cc(N(CCOC)CCOC)n2)c1 (centres unmarked) [Example 639-1a]
≥ 20 | 0.1 to 1 | CNCC(O)COc1cccc(-c2nc(-c3cc4ccccc4o3)cc(N(CCOC)CCOC)n2)c1 (centres unmarked) [Example 640-1a]
≥ 20 | 0.1 to 1 | CCN1CCN(c2nc(-c3cccc(OCC(O)CNC)c3)nc(NC3CCOCC3)c2C)CC1 (centres unmarked) [Example 641-1a]
≥ 20 | 1 to 3 | CNCC(O)COc1cccc(-c2nc(NC3CCOCC3)c(C)c(N3CCN(C(C)=O)CC3)n2)c1 (centres unmarked) [Example 643-1a]
≥ 20 | 1 to 3 | CNCC(O)COc1cccc(-c2nc(NC3CCOCC3)c(C)c(N3CCNC(C)C3)n2)c1 (centres unmarked) [Example 645-1a]
≥ 20 | 0.1 to 1 | CNCC(O)COc1cccc(-c2nc(NC3CCOCC3)cc(C3CC3)n2)c1 (centres unmarked) [Example 646-1a]
≥ 20 | 0.1 to 1 | CNCC(O)COc1cccc(-c2nc(NCCCN3CCCC3=O)cc(-c3cccc4ncccc34)n2)c1 (centres unmarked) [Example 648-1a]
≥ 20 | 0.1 to 1 | CNCC(O)COc1cccc(-c2nc(NCCCN3CCCC3=O)cc(-c3cc4ccccc4o3)n2)c1 (centres unmarked) [Example 649-1a]
≥ 20 | 0.1 to 1 | CNCC(O)COc1cccc(-c2nc(C3CCCC3)cc(C(CCOC)CCOC)n2)c1 (centres unmarked) [Example 650-1a]
≥ 20 | 0.1 to 1 | CNCC(O)COc1cccc(-c2nc(C3=CCCC3)cc(C(CCOC)CCOC)n2)c1 (centres unmarked) [Example 651-1a]
